Consider six compounds from US5916904A, “Antimicrobial agent” (Eisai Co., Ltd., priority 1992, dated 1999).

The test system of one data set is C. pylori EI-393. Kind of data set: MIC by agar dilution method, C. pylori clinical isolate EI-393. Type of data set: cell-based. As to conditions: Helicobacter pylori, EI393, 72 h; EI-393, clinical isolate; in vitro, 37° C., pH 7.0, 3 days, microaerophilic; read-out: antibiotic activity (MIC). (In agar dilution, organisms are placed on agar that contains the substance at set levels.)

In another data set the test system is C. pylori EI-2. Briefly: MIC by agar dilution method, C. pylori clinical isolate EI-2. As to conditions: Helicobacter pylori, EI2, 72 h; EI-2, clinical isolate; in vitro, 37° C., pH 7.0, 3 days, microaerophilic; read-out: antibiotic activity (MIC). It counts as cell-based.
The subject of a further data set is C. pylori EI-391. Briefly: MIC by agar dilution method, C. pylori clinical isolate EI-391. It counts as cell-based. The settings on record: Helicobacter pylori, EI391, 72 h; EI-391, clinical isolate (resistant); in vitro, 37° C., pH 7.0, 3 days, microaerophilic; read-out: antibiotic activity (MIC).
Another data set concerns C. pylori NCTC11916. Kind of data set: MIC by agar dilution method, C. pylori standard strain NCTC11916. Type of data set: cell-based. The settings on record: Helicobacter pylori, 72 h, in vitro, 37° C., pH 7.0, 3 days, microaerophilic, read-out: antibiotic activity (MIC).
In a further data set the test system is C. pylori EI-46. Kind of data set: MIC by agar dilution method, C. pylori clinical isolate EI-46. Type of data set: cell-based. The settings on record: Helicobacter pylori, EI46, 72 h; EI-46, clinical isolate (resistant); in vitro, 37° C., pH 7.0, 3 days, microaerophilic; read-out: antibiotic activity (MIC).
A further data set relates to C. pylori EI-36. Briefly: MIC by agar dilution method, C. pylori clinical isolate EI-36. Type of data set: cell-based. The settings on record: Helicobacter pylori, EI36, 72 h; EI-36, clinical isolate; in vitro, 37° C., pH 7.0, 3 days, microaerophilic; read-out: antibiotic activity (MIC).
The test system of the next data set is C. pylori EI-930. Kind of data set: MIC by agar dilution method, C. pylori clinical isolate EI-930. The settings on record: Helicobacter pylori, EI930, 72 h; EI-930, clinical isolate; in vitro, 37° C., pH 7.0, 3 days, microaerophilic; read-out: antibiotic activity (MIC). Type of data set: cell-based.
For the next data set, the system named is C. pylori EI-5. Kind of data set: MIC by agar dilution method, C. pylori clinical isolate EI-5. It counts as cell-based. As to conditions: Helicobacter pylori, EI5, 72 h; EI-5, clinical isolate; in vitro, 37° C., pH 7.0, 3 days, microaerophilic; read-out: antibiotic activity (MIC).
Data set [1] relates to C. pylori. Kind of data set: antibiotic activity against C. pylori, overall conclusion. It counts as cell-based. The settings on record: compared with antibiotic substances / known compounds.
A short description of data set [2]: Acute Toxicological Test in rats. As to conditions: rat, in vivo, one time. Here is the method:
(§1) The compound (I) of the invention was administered Intravenously or orally one time, with a carrier of saline, to Slc:SD rats and Slc:ICR mouse, each being 7 or 8 weeks old, in a group consisting of five males and five females, to determine LD50 values.
(§2) Acute toxicity of the compound (I) is shown in terms of LD50 in unit of mg/kg.

Another data set deals with C. pylori EI-612. Briefly: MIC by agar dilution method, C. pylori clinical isolate EI-612. It counts as cell-based. The settings on record: Helicobacter pylori, EI612, 72 h; EI-612, clinical isolate; in vitro, 37° C., pH 7.0, 3 days, microaerophilic; read-out: antibiotic activity (MIC).
A further data set has as its system C. pylori EI-933. Kind of data set: MIC by agar dilution method, C. pylori clinical isolate EI-933. As to conditions: Helicobacter pylori, EI933, 72 h; EI-933, clinical isolate; in vitro, 37° C., pH 7.0, 3 days, microaerophilic; read-out: antibiotic activity (MIC). It counts as cell-based.
Another data set concerns C. pylori EI-467. Kind of data set: MIC by agar dilution method, C. pylori clinical isolate EI-467. It counts as cell-based. The settings on record: Helicobacter pylori, EI467, 72 h; EI-467, clinical isolate; in vitro, 37° C., pH 7.0, 3 days, microaerophilic; read-out: antibiotic activity (MIC).
A further data set has as its system C. pylori EI-429. Kind of data set: MIC by agar dilution method, C. pylori clinical isolate EI-429. It counts as cell-based. As to conditions: Helicobacter pylori, EI429, 72 h; EI-429, clinical isolate; in vitro, 37° C., pH 7.0, 3 days, microaerophilic; read-out: antibiotic activity (MIC).
The test system of a further data set is C. pylori EI-925. Kind of data set: MIC by agar dilution method, C. pylori clinical isolate EI-925. It counts as cell-based. The settings on record: Helicobacter pylori, EI925, 72 h; EI-925, clinical isolate; in vitro, 37° C., pH 7.0, 3 days, microaerophilic; read-out: antibiotic activity (MIC).
A further data set relates to C. pylori NCTC11637. Kind of data set: MIC by agar dilution method, C. pylori standard strain NCTC11637. Type of data set: cell-based. As to conditions: Helicobacter pylori, 72 h, in vitro, 37° C., pH 7.0, 3 days, microaerophilic, read-out: antibiotic activity (MIC).
For another data set, the system named is C. pylori EI-397. Briefly: MIC by agar dilution method, C. pylori clinical isolate EI-397. It counts as cell-based. As to conditions: Helicobacter pylori, EI397, 72 h; EI-397, clinical isolate; in vitro, 37° C., pH 7.0, 3 days, microaerophilic; read-out: antibiotic activity (MIC).
Data set [3] in a line: Acute Toxicological Test in mice. As to conditions: mouse, in vivo, one time. Here is the method:
as §1, §2

The subject of data set [4] is C. pylori NCTC-11916, NCTC-11637, PCL-56, CPY-0011-1, KS-13, CLO-1 and CLO-6. As to conditions: standard strains and clinical isolates; JP-A 3-173817; cited from earlier work.
Data set [5] has as its system C. pylori. The settings on record: JP-A 2-209809 and JP-A 3-173817; cited from earlier work.
A further data set has as its system C. pylori 8005. The settings on record: C. pylori 8005, clinical isolate; JP-A 2-209809; cited from earlier work.

SMILES strings stand for the structures. Values after ≈ are worked out from the molar mass of the structure shown.

For orientation: MIC means the smallest concentration in the dilution series that meets the test's criterion for growth inhibition. In general, LD50 refers to the dose expected to kill half of the subjects tested. Consider `COCCCOc1ccnc(C[S+]([O-])c2nc3ccccc3[nH]2)c1C` (stereo not drawn) [(I), 2-[(4-(3-Methoxypropoxy)-3-methylpyridine-2-yl)-methylsulfinyl]-1H-benzimidazole], for which the MIC with C. pylori EI-393 came out at 3.13 µg/mL (≈ 8.71 µM); in the data set on C. pylori EI-2, 3.13 µg/mL (≈ 8.71 µM); in the data set with C. pylori EI-391, 3.13 µg/mL (≈ 8.71 µM); in the data set with C. pylori NCTC11916, 3.13 µg/mL (≈ 8.71 µM); with C. pylori EI-46, 3.13 µg/mL (≈ 8.71 µM); in the data set with C. pylori EI-36, 6.25 µg/mL (≈ 17.4 µM). The MIC with C. pylori EI-930 amounted to 3.13 µg/mL (≈ 8.71 µM); in the data set with C. pylori EI-5 it was 3.13 µg/mL (≈ 8.71 µM); with C. pylori EI-612, 0.4 µg/mL (≈ 1.11 µM); in the data set with C. pylori EI-933, 3.13 µg/mL (≈ 8.71 µM); with C. pylori EI-467, 1.56 µg/mL (≈ 4.34 µM); in the data set on C. pylori EI-429, 1.56 µg/mL (≈ 4.34 µM). Besides, the MIC with C. pylori EI-925, in the data set on C. pylori NCTC11637 and in the data set on C. pylori EI-397 was 3.13 µg/mL (≈ 8.71 µM) throughout. The C. pylori-eradicating activity entry with C. pylori [1] is on record as “the same C. pylori-eradicating activity as an antibiotic substance”. Moreover, the LD50 in data set [2] (iv, female) was determined as 152 mg/kg; in [2] (iv, male) it was 157 mg/kg; in data set [2] (po, female), 1330 mg/kg; in data set [2] (po, male), 1450 mg/kg; in data set [3] (iv, female), 237 mg/kg; in data set [3] (iv, male), 220 mg/kg. The LD50 in data set [3] (po, female) was 1010 mg/kg; in data set [3] (po, male), 1210 mg/kg.

For `Cc1c(OCC(F)(F)C(F)(F)C(F)F)ccnc1CSc1nc2ccccc2[nH]1` [JP-A 3-173817 compound (14), 2-[{3-Methyl-4-(2,2,3,3,4,4-hexafluorobutoxy)pyrid-2-yl}methylthio]-1H-benzimidazole], in [4], the antibiotic activity result is on record as “activity against all the tested strains”.

Regarding `COCCCOc1ccnc(CSc2nc3ccccc3[nH]2)c1C` [(II), 2-[(4-(3-Methoxypropoxy)-3-methylpyridine-2-yl)-methylthio]-1H-benzimidazole], the MIC was found to be 1.56 µg/mL (≈ 4.54 µM) in the data set with C. pylori EI-393; 0.4 µg/mL (≈ 1.16 µM) in the data set on C. pylori EI-2; 1.56 µg/mL (≈ 4.54 µM) in the data set on C. pylori EI-391; 0.2 µg/mL (≈ 0.582 µM) in the data set with C. pylori NCTC11916; 0.4 µg/mL (≈ 1.16 µM) with C. pylori EI-46; 0.4 µg/mL (≈ 1.16 µM) in the data set with C. pylori EI-36. For the same compound, the MIC in the data set with C. pylori EI-930 was 0.4 µg/mL (≈ 1.16 µM); in the data set on C. pylori EI-5 it was 0.2 µg/mL (≈ 0.582 µM); in the data set on C. pylori EI-612, 0.8 µg/mL (≈ 2.33 µM); in the data set on C. pylori EI-933, 0.8 µg/mL (≈ 2.33 µM); in the data set with C. pylori EI-467 it was 1.56 µg/mL (≈ 4.54 µM); with C. pylori EI-429 it was 1.56 µg/mL (≈ 4.54 µM). Also, the MIC in the data set on C. pylori EI-925 was 0.4 µg/mL (≈ 1.16 µM); with C. pylori NCTC11637, 0.8 µg/mL (≈ 2.33 µM); with C. pylori EI-397 it was 1.56 µg/mL (≈ 4.54 µM). The C. pylori-eradicating activity result in the data set on C. pylori [1] is listed as “the same C. pylori-eradicating activity as an antibiotic substance”.

For the compound `Cc1c(OCC(F)(F)C(F)F)ccnc1CSc1nc2ccccc2[nH]1` [JP-A 3-173817 compound (12), 2-[{3-Methyl-4-(2,2,3,3-tetrafluoropropoxy)pyrid-2-yl}methylthio]-1H-benzimidazole], the antibiotic activity result in data set [4] is reported as “activity against all the tested strains”.

As to `COc1ccc2[nH]c([S+]([O-])Cc3ncc(C)c(OC)c3C)nc2c1` (stereo not drawn) [(III), 5-Methoxy-2-[{(4-methoxy-3,5-dimethyl-2-pyridinyl)methyl}sulfinyl]-1H-benzimidazole], the antibiotic activity entry is “lacks sufficient antibiotic activity” with C. pylori [5] and “has antibiotic activity against C. pylori 8005” in the data set with C. pylori 8005. In addition, the MIC turned out to be 50 µg/mL (≈ 145 µM) in the data set with C. pylori EI-393; 25 µg/mL (≈ 72.4 µM) with C. pylori EI-2; 50 µg/mL (≈ 145 µM) in the data set with C. pylori EI-391; 25 µg/mL (≈ 72.4 µM) in the data set on C. pylori NCTC11916; 25 µg/mL (≈ 72.4 µM) with C. pylori EI-46; 25 µg/mL (≈ 72.4 µM) in the data set on C. pylori EI-36. The minimum inhibitory concentration (MIC) came out at 25 µg/mL (≈ 72.4 µM) in the data set on C. pylori EI-930; 50 µg/mL (≈ 145 µM) in the data set with C. pylori EI-5; 25 µg/mL (≈ 72.4 µM) with C. pylori EI-612; 25 µg/mL (≈ 72.4 µM) in the data set with C. pylori EI-933; 50 µg/mL (≈ 145 µM) in the data set with C. pylori EI-467; 25 µg/mL (≈ 72.4 µM) in the data set with C. pylori EI-429. Also, the MIC with C. pylori EI-925 worked out at 25 µg/mL (≈ 72.4 µM); with C. pylori NCTC11637, 50 µg/mL (≈ 145 µM); in the data set with C. pylori EI-397 it was 50 µg/mL (≈ 145 µM).

As for `Cc1c(OCC(F)(F)C(F)(F)F)ccnc1CSc1nc2ccccc2[nH]1` [JP-A 3-173817 compound (13), 2-[{3-Methyl-4-(2,2,3,3,3-pentafluoropropoxy)pyrid-2-yl}methylthio]-1H-benzimidazole], in [4], the antibiotic activity entry is on record as “activity against all the tested strains”.
